By solubility is commonly meant the dissolved amount per volume that the medium holds.

In brackets after ≈: the same amount, converted by molar mass. Peptide text beside a SMILES is read from it.

We go through six compounds from patent publication US20130130317A1, “METHOD FOR PRODUCING SUBSTANCE” (KYOWA HAKKO KIRIN CO., LTD, priority 2010, published 2013).

For data set [1] the following is noted: cited from earlier work.
A short description of data set [2]: Precipitation in media for cell culture on storage. The format is physicochemical. The conditions noted are these: 5.0 mmol/L in medium, stored at 4° C., after 3 days; for precipitation in the medium for cell culture: 20° C. or room temperature. As for the experimental part: The following media for cell culture were prepared to compare differences in precipitation therebetween.
In 700 mL of water, 31.6 g of AGT Efficient Feed A (manufactured by Invitrogen, Catalog No. AG090231P7), 0.50 mL of polyamine solution (manufactured by Invitrogen, Catalog No. AG090232P8), 27.2 g of AGT Efficient Feed B (manufactured by Invitrogen, Catalog No. AG090230P7), 30.0 g of Hydrolysate (manufactured by DMV, Catalog No. P42474), 70.0 g of glucose (manufactured by Wako Pure Chemical Industries, Catalog No. 041-00595), and 5.0 g of L-(+)-glutamine (manufactured by Wako Pure Chemical Industries, Catalog No. 078-00525) or 7.4 g of L-alanyl-L-glutamine (manufactured by Kyowa Hakko Bio) were mixed.
After stirring for approximately 30 minutes, 7.0 mL of 5 mol/L HCl aqueous solution (manufactured by Wako Pure Chemical Industries, Catalog No. 081-05435) was added, followed by further stirring for approximately 20 minutes and pH was adjusted to 6.5. Thereafter, 50 mL of an alkaline solution containing 0.5 mol/L of NaOH (manufactured by Junsei Chemical, Catalog No. 39155-0301), 100 mmol/L of L-tyrosine disodium salt (manufactured by Sigma, Catalog No. T1145-100G), and 100 mmol/L of L-cystine dihydrochloride (manufactured by Wako Pure Chemical Industries, Catalog No. 034-05322) was added to the prepared aqueous solution of pH 6.5.
A volume of the aqueous solution was adjusted to 1 L with water, followed by stirring for approximately 20 minutes so as to prepare a medium for cell culture. In the medium for cell culture, L-tyrosine disodium salt and L-cystine dihydrochloride were substituted with the same concentration (5.0 mmol/L) of L-alanyl-L-tyrosine (manufactured by Kyowa Hakko Bio) and bis-L-alanyl-L-cysteine (manufactured by Kyowa Hakko Bio) to prepare media for cell culture, respectively. The prepared media for cell culture were stored under three conditions of at 4° C. (refrigerator, manufactured by Hoshizaki), 20° C. (e-Cooling Bucket, manufactured by Taitec), or room temperature.

For data set [3], the system named is antibody X-expressing CHO cells. In words: Antibody titer in fed-batch culture of CHO cells. The format is cell-based, Chinese hamster. As to conditions: 13 days of culture. As for the experimental part:
(§1) The feed medium was composed of 31.6 g/L of AGT Efficient Feed A (manufactured by Invitrogen, Catalog No. AG090231P7), 0.50 ml/L of polyamine solution (manufactured by Invitrogen, Catalog No. AG090232P8), 27.2 g/L of AGT Efficient Feed B (manufactured by Invitrogen, Catalog No. AG090230P7), 5.0 g/L of L-(+)-glutamine (manufactured by Wako Pure Chemical Industries, Catalog No. 078-00525), 30.0 g/L of hydrolysates (manufactured by DMV, Catalog No. P42474), 70.0 g/L of glucose (manufactured by Wako Pure Chemical Industries, Catalog No. 041-00595), 5.0 mmol/L of L-alanyl-L-tyrosine (Kyowa Hakko Bio), and 5.0 mmol/L, 10 mmol/L or 16 mmol/L of bis-L-alanyl-L-cysteine (manufactured by Kyowa Hakko Bio), and prepared in the same manner as in Example 1.
(§2) In the culture using antibody X-expressing CHO cells, 4.0 mmol/L of glutamine (manufactured by Invitrogen, Catalog No. 25030)-containing EX-CELL325 (manufactured by SAFC, Catalog No. 14340C-1000mL) was used as a main culture medium. The feed medium was added to perform fed-batch culture.
In order to examine antibody production, antibody titer was measured at 13 days of culture in the fed-batch culture of CHO cells having an ability to produce the antibody of Example 2. In the feed medium, the […] 0.75 g/L at 5.0 mmol/L, 0.79 g/L at 10 mmol/L, and 0.78 g/L at 16 mmol/L.

Data set [4] has the same test system. In words: Fed-batch culture of CHO cells: number of living cells and survival rate. As to conditions: 13 days of culture. It is filed as cell-based, Chinese hamster. The procedure: The following feed media for cell culture were prepared, and fed-batch culture was carried out using CHO cells for comparison.
as §1, §2

The conditions of data set [5]: H2O, 20° C.; cited from earlier work.

For the compound `Cl.N[C@@H](CS)C(=O)O` [cysteine hydrochloride], the “stability in an aqueous solution” value in data set [1] was “low stability”.
Consider L-tyrosine disodium salt, for which, in data set [2], the “precipitation in the medium for cell culture” value is “precipitations were observed” and the “precipitation in the medium, low temperature compared with other storage conditions” value is “more precipitation was observed”.
For `Cl.Cl.N[C@@H](CSSC[C@H](N)C(=O)O)C(=O)O` [L-cystine dihydrochloride], in data set [2], the “precipitation in the medium for cell culture” value was “precipitations were observed” and the “precipitation in the medium, low temperature compared with other storage conditions” value was “more precipitation was observed”.
For the compound `C[C@H](N)C(=O)N(C(=O)[C@H](C)N)[C@@H](CS)C(=O)O` [bis-L-alanyl-L-cysteine], the “precipitation in the medium for cell culture” value in data set [2] is listed as “no precipitation”. In addition, the antibody titer in data set [3] (5.0 mmol/L in feed medium) was found to be 0.75 g/L; in data set [3] (10 mmol/L in feed medium) it was 0.79 g/L; in data set [3] (16 mmol/L in feed medium), 0.78 g/L. In addition, the “Number of living cells” value in data set [4] (5 mmol/L in feed medium) is 28.6 10^5 cells/mL; in data set [4] (10 mmol/L in feed medium), 44.1 10^5 cells/mL; in data set [4] (16 mmol/L in feed medium), 58.1 10^5 cells/mL. Moreover, the Survival rate in data set [4] (5 mmol/L in feed medium) was determined as 55.0%; in data set [4] (10 mmol/L in feed medium), 78.7%; in data set [4] (16 mmol/L in feed medium) it was 86.6%.
Consider `C[C@H](N)C(=O)N[C@@H](Cc1ccc(O)cc1)C(=O)O` [L-alanyl-L-tyrosine] (H-Ala-Tyr-OH), for which, in data set [2], the “precipitation in the medium for cell culture” value is on record as “no precipitation”.
With `N[C@@H](CSSC[C@H](N)C(=O)O)C(=O)O` [cystine], the solubility in data set [5] was 100 µg/mL (≈ 416 µM).
